Measured values taken from US11530226B2, “Azepane inhibitors of menin-MLL interaction” (Janssen Pharmaceutica NV, priority 2016, dated 2022).
Where two headings read alike, the source gives them in different places.

How the values were obtained:
[1] = tested on: MV-4-1 1 cells (MLL-AF4); test: Proliferation assay (spheroid-like growth, 8 d, live-cell imaging), MV-4-11; type: cell-based, human; conditions: MV-4-11 cells, absolute IC50 from AUC of confluence, read-out: (3) Spheroid assay MV-4-11 (IC50 (μM))
Summary of the method: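 Cells seeded in ultra-low attachment wells (1,500 MV-4-11, 300 MOLM14, 750 K562) with compound, 0.3% DMSO, grown 8 d at 37° C. Confluence imaged every four hours; AUC of confluence versus time, relative to vehicle, fitted for absolute IC50.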

[2] = molecular target: T1, menin / FITC-MBM1 peptide (Menin/MLL) (Homo sapiens, UniProt O00255); test: Menin/MLL fluorescence polarization (FP) assay; type: binding; conditions: read-out: (1) Menin FP assay (IC50 (μM))
T1 sequence (O00255 1-610): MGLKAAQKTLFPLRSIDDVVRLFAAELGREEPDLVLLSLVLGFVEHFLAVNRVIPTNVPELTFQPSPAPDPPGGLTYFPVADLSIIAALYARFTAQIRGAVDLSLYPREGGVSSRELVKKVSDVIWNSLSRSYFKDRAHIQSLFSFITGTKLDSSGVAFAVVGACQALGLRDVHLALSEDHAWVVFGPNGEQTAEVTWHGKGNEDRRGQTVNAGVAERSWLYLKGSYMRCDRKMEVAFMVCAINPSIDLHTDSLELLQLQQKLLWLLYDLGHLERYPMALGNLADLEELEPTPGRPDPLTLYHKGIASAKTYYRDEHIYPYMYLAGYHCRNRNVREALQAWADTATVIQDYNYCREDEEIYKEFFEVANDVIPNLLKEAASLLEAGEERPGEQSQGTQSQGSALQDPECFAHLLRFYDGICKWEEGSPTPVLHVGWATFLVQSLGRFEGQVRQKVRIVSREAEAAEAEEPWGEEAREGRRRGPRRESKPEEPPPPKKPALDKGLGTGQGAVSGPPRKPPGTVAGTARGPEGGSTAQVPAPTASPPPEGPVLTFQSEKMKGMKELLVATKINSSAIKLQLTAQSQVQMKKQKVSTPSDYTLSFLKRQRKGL
Procedure: Pharmacological Part 1) Menin/MLL Fluorescence Polarization Assay
To a non-surface binding, black 384-well microtiter plate was added 50 nL 160× test compound in DMSO and 4 μL 2× menin in assay buffer (40 mM TrisHCl, pH 7.5, 50 mM NaCl, 1 mM DTT and 0.001% Tween 20). After incubation of test compound and menin for 10 min at ambient temperature, 4 μL 2×FITC-MBM1 peptide (FITC-β-alanine-SARWRPPARPGT-NH2) in assay buffer was added, the microtiter plate centrifuged at 1000 rpm for 1 min and the assay mixtures incubated for 15 min at ambient temperature. The relative amount of menin -FITC-MBM1 complex present in an assay mixture is determined by measuring the fluorescence polarization (FP) of the FITC label with a BMG Pherastar plate reader (ex. 485 nm/em. 520 nm) at ambient temperature. The final concentrations of reagents in the binding assay are 100 nM menin, 5 nM FITC-MBM1 peptide and 0.625%>DMSO in assay buffer. Dose-response titrations of test compounds are conducted using an 11 point, three-fold serial dilution scheme, starting at 31 μM.
Compound potencies were determined by first calculating % inhibition at each compound concentration according to equation 1: % inhibition=((HC−LC)−(FPcompound−LC))/(HC−LC))*100 (Eqn 1)
Where LC and HC are the FP values of the assay in the presence or absence of a saturating concentration of a compound that competes with FITC-MBM1 for binding to menin, and FP^compound is the measured FP value in the presence of the test compound. HC and LC FP values represent an average of at least 16 replicates per plate.
Where Bottom and Top are the lower and upper asymptotes of the dose-response curve, respectively, IC50 is the concentration of compound that yields 50% inhibition of signal and h is the Hill coefficient.

[3] = tested on: K562 cells (two MLL wildtype alleles); test: Proliferation assay (spheroid-like growth, 8 d, live-cell imaging), K562 control cell line; type: cell-based; conditions: Homo sapiens, 192 h, absolute IC50 from AUC of confluence, read-out: (3) Spheroid assay K562
Procedure: The anti-proliferative effect of menin/MLL protein/protein interaction inhibitor test compounds was assessed in human leukemia cell lines. The cell lines MV-4-1 1 and MOLM14 harbor MEL translocations and express the MEL fusion proteins MLL-AF4 and MLL-AF9, respectively, as well as the wildtype protein from the second allele. […] K562 was used as a control cell line containing two MLL wildtype alleles in order to exclude compounds that display general cytotoxic effects.
MV-4-1 1 and MOLM14 were cultured in RPMI-1640 (Sigma Aldrich) supplemented with 10% fetal bovine serum (HyClone), 2 mM L-glutamine (Sigma Aldrich) and 50 μg/ml gentamycin (Gibco). […]
In order to assess the anti-proliferative effects, 1,500 MV-4-1 1, 300 MOLM14 or 750 K562 cells were seeded in 200 μl media per well in 96-well round bottom, ultra-low attachment plates (Costar, catalogue number 7007). […] Spheroid like growth was monitored in real-time by live-cell imaging (IncuCyteZOOM, Essenbio, 4× objective) acquiring one image every four hours for 8d. Confluence (%) as a measure of spheroid size was determined using an integrated analysis tool.
In order to determine the cumulative effect of the test compounds over time, the area under the curve (AUC) in a plot of confluence against time was calculated. […]

| IC50 [1] | IC50 [2] | IC50 ([1]; Homo sapiens, MV4-11, 192 h) | IC50 [3] | Structure (SMILES) |
| --- | --- | --- | --- | --- |
| 2.5 µM | 0.054 µM | – | – | CC(C)CNC1CCCN(c2ncnc3sc(CC(F)(F)F)cc23)CC1 (single isomer, unassigned) [Compound B1A, N-isobutyl-1-(6-(2,2,2-trifluoroethyl)thieno[2,3-d]pyrimidin-4-yl)azepan-4-amine] |
| 8.9 µM | 0.44 µM | – | – | CC(C)CNC1CCCN(c2ncnc3sc(CC(F)(F)F)cc23)CC1 (single isomer, unassigned) [Compound B1B, N-isobutyl-1-(6-(2,2,2-trifluoroethyl)thieno[2,3-d]pyrimidin-4-yl)azepan-4-amine] |
| – | 0.038 µM | 0.44 µM | 9.7 µM | FC(F)(F)Cc1cc2c(N3CCC[C@@H](NCc4ccccc4)CC3)ncnc2s1 [Compound 3, (R)N-benzyl-1-(6-(2,2,2-trifluoroethyl)thieno[2,3-d]pyrimidin-4-yl)azepan-4-amine] |
| – | 0.23 µM | 2.9 µM | 8.8 µM | FC(F)(F)Cc1cc2c(N3CCC[C@H](NCc4ccccc4)CC3)ncnc2s1 [Compound 4, (S)-N-benzyl-1-(6-(2,2,2-trifluoroethyl)thieno[2,3-d]pyrimidin-4-yl)azepan-4-amine] |
